These results are taken from patent US20230079819A1, “COMPOUNDS AND USES THEREOF” (Foghorn Therapeutics Inc., priority 2019, published 2023).

Experiment [1] relates to uveal melanoma cell lines 92-1 or MP41. In words: Growth inhibition of uveal melanoma cell lines, compound 67 compared with clinical PKC and MEK inhibitors, 3 days, Cell-titer glo. It counts as cell-based. The settings on record: vs LXS196 and Selumetinib.
Experiment [2] concerns uveal melanoma cell lines (92-1, MP41, MP38, MP46). Kind of experiment: Growth of uveal melanoma cell lines with compound 67, 3 days, Cell-titer glo. It counts as cell-based. The settings on record: 0 to 10 micromolar.
Experiment [3] has as its target T1, BRG-1 (Homo sapiens, UniProt P51532).
T1 construct: made in house; host or cells: High Five insect cells
In words: ATPase catalytic activity of BRG-1, ADP-Glo in vitro biochemical assay. The settings on record: 30 nM BRG-1, 400 μM ATP, read-out: BRG1 IP50. For orientation: ADP-Glo first removes unused ATP, then detects ADP through luciferase.

Experiment [4] has as its target T2, BRM (Homo sapiens, UniProt P51531).
T2 construct: made in house; host or cells: High Five insect cells
Kind of experiment: ATPase catalytic activity of BRM, ADP-Glo in vitro biochemical assay. The settings on record: 30 nM BRM, 400 μM ATP, read-out: BRM IP50.

Experiment [5] has as its system several cancer cell lines. In words: Inhibition of cell proliferation of several cancer cell lines. It is filed as cell-based.
Experiment [6] has as its system uveal melanoma cell line 92-1. Kind of experiment: Inhibition of cell proliferation of uveal melanoma cell line 92-1. It is filed as cell-based.
In experiment [7] the test system is uveal melanoma cell lines 92-1 or MP41. In words: Growth inhibition of uveal melanoma cell lines, Compound A compared with clinical PKC and MEK inhibitors, 3 days, Cell-titer glo. It counts as cell-based. Conditions: vs LXS196 and Selumetinib.
In experiment [8] the test system is uveal melanoma cell line MP41. In words: Inhibition of cell proliferation of uveal melanoma cell line MP41. It is filed as cell-based.
The test system of experiment [9] is MP41 uveal melanoma cells, parental and PKCi-resistant. In words: 7-day growth inhibition assay in parental and PKC inhibitor-resistant MP41 cells. It is filed as cell-based. Conditions: 7-day assay.
In experiment [10] the test system is parental and PKC-inhibitor refractory uveal melanoma cell lines. In words: Inhibition of cell proliferation of parental and PKC-inhibitor refractory uveal melanoma cell lines. It is filed as cell-based.
[11] abbreviates: 92-1 or MP41, 3 days, 0 to 10 micromolar.

T2 sequence (P51531 whole entry): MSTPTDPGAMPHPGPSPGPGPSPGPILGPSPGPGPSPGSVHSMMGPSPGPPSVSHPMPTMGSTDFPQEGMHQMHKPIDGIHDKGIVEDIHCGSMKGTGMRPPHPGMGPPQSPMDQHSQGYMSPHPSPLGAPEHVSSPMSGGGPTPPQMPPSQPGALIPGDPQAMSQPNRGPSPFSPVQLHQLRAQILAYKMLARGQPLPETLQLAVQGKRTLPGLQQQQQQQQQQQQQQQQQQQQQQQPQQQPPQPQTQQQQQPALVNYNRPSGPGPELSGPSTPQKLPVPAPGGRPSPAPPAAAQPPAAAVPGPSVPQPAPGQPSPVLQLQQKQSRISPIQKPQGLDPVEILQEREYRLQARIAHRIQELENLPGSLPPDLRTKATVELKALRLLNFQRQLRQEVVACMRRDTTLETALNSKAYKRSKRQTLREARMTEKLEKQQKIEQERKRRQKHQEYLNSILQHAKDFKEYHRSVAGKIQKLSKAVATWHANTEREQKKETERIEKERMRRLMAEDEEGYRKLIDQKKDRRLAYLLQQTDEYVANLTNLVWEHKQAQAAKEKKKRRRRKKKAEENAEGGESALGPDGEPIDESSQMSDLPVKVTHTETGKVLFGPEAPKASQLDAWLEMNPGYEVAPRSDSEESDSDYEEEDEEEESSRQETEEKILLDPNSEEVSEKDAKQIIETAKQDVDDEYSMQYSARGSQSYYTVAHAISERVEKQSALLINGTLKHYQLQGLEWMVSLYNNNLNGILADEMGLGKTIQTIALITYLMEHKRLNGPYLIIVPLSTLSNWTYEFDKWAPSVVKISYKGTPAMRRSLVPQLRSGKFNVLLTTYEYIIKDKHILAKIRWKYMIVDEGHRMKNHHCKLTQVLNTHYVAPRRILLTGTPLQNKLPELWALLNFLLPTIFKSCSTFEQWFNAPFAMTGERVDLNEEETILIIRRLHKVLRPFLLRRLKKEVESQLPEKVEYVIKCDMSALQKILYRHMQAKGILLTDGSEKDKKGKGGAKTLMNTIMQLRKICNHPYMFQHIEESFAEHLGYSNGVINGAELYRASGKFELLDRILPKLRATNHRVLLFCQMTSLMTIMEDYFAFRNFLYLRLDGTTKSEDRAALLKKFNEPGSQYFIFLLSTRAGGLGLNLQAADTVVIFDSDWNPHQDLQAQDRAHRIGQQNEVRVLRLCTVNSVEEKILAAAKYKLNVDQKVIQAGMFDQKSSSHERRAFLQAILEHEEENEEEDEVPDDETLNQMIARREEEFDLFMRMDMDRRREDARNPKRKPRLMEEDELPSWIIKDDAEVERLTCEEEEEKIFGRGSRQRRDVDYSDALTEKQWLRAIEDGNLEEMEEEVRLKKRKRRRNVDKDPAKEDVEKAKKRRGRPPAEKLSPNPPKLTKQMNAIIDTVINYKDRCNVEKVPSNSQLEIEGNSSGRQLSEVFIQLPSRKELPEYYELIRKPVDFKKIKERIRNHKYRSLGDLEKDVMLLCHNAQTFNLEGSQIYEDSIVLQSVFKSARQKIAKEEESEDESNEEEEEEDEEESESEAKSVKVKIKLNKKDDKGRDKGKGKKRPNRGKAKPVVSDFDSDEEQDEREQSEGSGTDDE
T1 sequence (P51532 whole entry): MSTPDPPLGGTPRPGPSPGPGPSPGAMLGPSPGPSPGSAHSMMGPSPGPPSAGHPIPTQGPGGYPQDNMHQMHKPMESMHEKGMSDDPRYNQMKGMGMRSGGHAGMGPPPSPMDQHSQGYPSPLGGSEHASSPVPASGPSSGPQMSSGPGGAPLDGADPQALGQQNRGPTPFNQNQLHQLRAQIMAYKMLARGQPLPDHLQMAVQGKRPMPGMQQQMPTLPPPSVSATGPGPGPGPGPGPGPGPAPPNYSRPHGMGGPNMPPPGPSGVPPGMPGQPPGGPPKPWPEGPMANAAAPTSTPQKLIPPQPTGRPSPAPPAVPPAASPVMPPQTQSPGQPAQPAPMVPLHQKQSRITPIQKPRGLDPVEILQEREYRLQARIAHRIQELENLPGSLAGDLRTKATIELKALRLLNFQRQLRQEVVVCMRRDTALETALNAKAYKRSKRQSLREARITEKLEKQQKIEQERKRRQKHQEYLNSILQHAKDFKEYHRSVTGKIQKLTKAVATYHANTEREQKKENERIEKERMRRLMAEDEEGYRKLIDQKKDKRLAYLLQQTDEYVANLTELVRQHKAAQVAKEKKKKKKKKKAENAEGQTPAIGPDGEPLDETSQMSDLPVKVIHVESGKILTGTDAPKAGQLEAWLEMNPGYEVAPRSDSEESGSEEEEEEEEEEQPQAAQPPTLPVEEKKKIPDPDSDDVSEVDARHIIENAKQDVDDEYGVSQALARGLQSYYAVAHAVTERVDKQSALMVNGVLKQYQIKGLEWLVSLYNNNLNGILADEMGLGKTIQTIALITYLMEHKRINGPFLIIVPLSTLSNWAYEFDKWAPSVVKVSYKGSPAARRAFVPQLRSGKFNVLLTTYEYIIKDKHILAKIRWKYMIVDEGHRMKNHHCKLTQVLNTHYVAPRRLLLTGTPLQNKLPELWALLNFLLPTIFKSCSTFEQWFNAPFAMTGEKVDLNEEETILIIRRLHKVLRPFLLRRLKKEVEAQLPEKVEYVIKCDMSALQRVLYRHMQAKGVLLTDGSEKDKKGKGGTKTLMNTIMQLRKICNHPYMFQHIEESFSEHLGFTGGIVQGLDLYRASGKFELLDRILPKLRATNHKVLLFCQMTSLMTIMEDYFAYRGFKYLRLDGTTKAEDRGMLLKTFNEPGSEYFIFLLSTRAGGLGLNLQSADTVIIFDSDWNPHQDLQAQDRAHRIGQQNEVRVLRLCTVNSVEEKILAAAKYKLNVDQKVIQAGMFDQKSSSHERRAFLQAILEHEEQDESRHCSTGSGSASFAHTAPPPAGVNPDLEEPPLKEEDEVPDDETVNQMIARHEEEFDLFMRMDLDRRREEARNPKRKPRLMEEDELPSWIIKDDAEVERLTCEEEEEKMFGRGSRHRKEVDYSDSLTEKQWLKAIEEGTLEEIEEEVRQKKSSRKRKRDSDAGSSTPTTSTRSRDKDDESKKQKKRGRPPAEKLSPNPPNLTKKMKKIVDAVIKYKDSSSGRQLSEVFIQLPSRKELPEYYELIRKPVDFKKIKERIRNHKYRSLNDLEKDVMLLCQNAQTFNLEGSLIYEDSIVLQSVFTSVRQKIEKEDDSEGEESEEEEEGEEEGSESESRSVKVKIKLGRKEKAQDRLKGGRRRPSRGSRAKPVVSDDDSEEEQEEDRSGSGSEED

Take `CSCC[C@H](NC(=O)c1ccn(S(C)(=O)=O)c1)C(=O)Nc1nc(-c2cccc(-c3ccncc3)c2)cs1` [Compound 67, (S)-1-(methylsulfonyl)-N-(4-(methylthio)-1-oxo-1-((4-(3-(pyridin-4-yl)phenyl)thiazol-2-yl)amino)butan-2-yl)-1H-pyrrole-3-carboxamide]: in [1] (setting [11]), the “growth inhibition of uveal melanoma cells compared with clinical PKC and MEK inhibitors (FIG. 6A, 6B)” value is listed as “more potent effects on growth inhibition”. For the same molecule, in [1] (92-1 or MP41), the “onset of growth inhibition compared with clinical PKC and MEK inhibitors” value is “faster onset of growth inhibition”. For the same molecule, the “growth inhibition in uveal melanoma cell lines (FIG. 5)” value in experiment [2] is on record as “potent growth inhibition”.
Regarding `CN1CCOc2ccc(-c3csc(NC(=O)CNC(=O)c4ccn(C5(C#N)CC5)n4)n3)cc21` [Compound 811], the IC50 was more than 100 nM in experiment [3] and more than 10 nM in [4].
For `COC[C@H](NC(=O)c1ccn(C2(C#N)CC2)n1)C(=O)Nc1nc(-c2ccc3ccn(C)c(=O)c3c2)cs1` [Compound 812], in that order: more than 100 nM and more than 100 nM.
Turning to `Cn1ccc(-c2cccc(-c3csc(NC(=O)CNC(=O)c4ccn(C5(C#N)CC5)n4)n3)c2)n1` [Compound 813], the IC50 in [3] was more than 100 nM; in [4] it was more than 10 nM.
For `N#CC1(n2ccc(C(=O)NCC(=O)Nc3nc(-c4cccc(N5CCC5)c4)cs3)n2)CC1` [Compound 814], in that order: more than 100 nM and more than 10 nM.
As to `COC[C@H](NC(=O)c1ccn(C2(C#N)CC2)n1)C(=O)Nc1nc(-c2cccc(-c3ccn(C)n3)c2)cs1` [Compound 815], the IC50 in [3] and in experiment [4] was more than 100 nM throughout.
In the case of `COC[C@H](NC(=O)c1ccn(C(C)(C)C#N)n1)C(=O)Nc1nc(-c2ccc3ccn(C)c(=O)c3c2)cs1` [Compound 816], the IC50 in experiment [3] and in [4] was more than 10 nM each time.
For the molecule `COC[C@H](NC(=O)c1ccn(C(C)(C)C#N)n1)C(=O)Nc1nc(-c2cc(C)cc(N3C[C@@H](C)O[C@@H](C)C3)n2)cs1` [Compound 817], the IC50 in experiment [3] and in [4] was more than 10 nM in each case.
In the case of `COC[C@H](NC(=O)c1cn(C(C)(C)C#N)cn1)C(=O)Nc1nc(-c2cc(C)cc(N3C[C@@H](C)O[C@@H](C)C3)n2)cs1` [Compound 818], the IC50 in experiment [3] and in experiment [4] was more than 10 nM in each case.
In the case of `C[C@@H]1CN(c2cccc(-c3csc(NC(=O)CNC(=O)c4cn(C(C)(C)C#N)cn4)n3)n2)C[C@H](C)O1` [Compound 819], the IC50 in experiment [3] and in experiment [4] was more than 10 nM throughout.
For `CC(C)(C)c1cnc(C(=O)NCC(=O)Nc2nc(-c3cccc(N4CCC4)c3)cs2)s1` [Compound 820], the IC50 in [3] and in [4] was more than 100 nM throughout.
With `COC[C@H](NC(=O)c1ncc(C(C)(C)C)o1)C(=O)Nc1nc(-c2cccc(-c3cnn(C)n3)c2)cs1` [Compound 821], the IC50 in experiment [3] and in experiment [4] was more than 10 nM in each case.
With `C[C@@H]1CN(c2cccc(-c3csc(NC(=O)CNC(=O)c4ncc(C(C)(C)C)s4)n3)n2)C[C@H](C)O1` [Compound 822], the IC50 in [3] is more than 100 nM; in experiment [4], more than 10 nM.
For `C[C@@H]1CN(c2cccc(-c3csc(NC(=O)CNC(=O)c4ncc(C(C)(C)C)o4)n3)c2)C[C@H](C)O1` [Compound 823], in that order: more than 10 nM and less than 10 nM.
Turning to `COc1cnc(C(=O)NCC(=O)Nc2nc(-c3cccc(N4C[C@@H](C)O[C@@H](C)C4)n3)cs2)o1` [Compound 824], the IC50 in experiment [3] and in experiment [4] was more than 100 nM each time.
As to `COC[C@H](NC(=O)c1ncc(C(C)(C)C)o1)C(=O)Nc1nc(-c2cc(F)cc(-c3cnn(C)n3)c2)cs1` [Compound 825], the IC50 in experiment [3] is more than 10 nM; in experiment [4], less than 10 nM.
`C[C@@H]1CN(c2cccc(-c3csc(NC(=O)CNC(=O)c4ncc(C5(C)COC5)o4)n3)n2)C[C@H](C)O1` [Compound 826]: the IC50 in experiment [3] and in [4] was more than 10 nM each time.
With `C[C@@H]1CN(c2cccc(-c3csc(NC(=O)CNC(=O)c4ncc(C(C)(C)C)o4)n3)n2)C[C@H](C)O1` [Compound 827], the IC50 in experiment [3] was more than 10 nM; in [4], less than 10 nM.
Turning to `CSCC[C@H](NC(=O)c1ccc(N)cc1)C(=O)Nc1nc(-c2cccc(-c3ccncc3)c2)cs1` [Compound A], the “inhibition of cell proliferation” value in experiment [5], in experiment [6] and in experiment [8] was “inhibition of cell proliferation” in each case. Besides, the “growth inhibition of uveal melanoma cells compared with clinical PKC and MEK inhibitors (FIG. 2A, 2B)” value in [7] (setting [11]) is reported as “comparable growth inhibition”. The “onset of inhibition compared with clinical PKC and MEK inhibitors” value in [7] (92-1 or MP41) is given as “faster onset of inhibition”.
On to `CC1(N)CCN(c2cccnc2NC(=O)c2nc(-c3ncccc3C(F)(F)F)cnc2N)CC1` [LXS196, reference compound], for which the “growth tolerance of PKCi-resistant cells relative to parental MP41 cell line (FIG. 7A)” value in experiment [9] is given as “could tolerate growth at higher concentrations”. Moreover, the “inhibition of cell proliferation” value in experiment [6], in experiment [10] and in experiment [8] was “inhibition of cell proliferation” throughout.
